# Measured values from ChEMBL document CHEMBL3120096 (J Med Chem, 2014).
# Legend:
# [1] = organism: Homo sapiens; test: Selectivity ratio of Ki for JAK2 (unknown origin) to Ki for LRRK2 (unknown origin)
# [2] = target: MDR1 (P-gp, ABCB1) (Homo sapiens, UniProt P08183); test: Activity at human MDR1 transfected in MDCK cells assessed as efflux ratio of apparent permeability from basolateral to apical side over apical to basolateral side at 5 uM; type: ADME, cell-based
# [3] = tested on: Rattus norvegicus; test: Unbound clearance in Sprague-Dawley rat at 1 mg/kg, po and 0.5 mg/kg, iv; type: ADME, organism-based; details: in vivo
# [4] = Clearance in Sprague-Dawley rat at 1 mg/kg, po and 0.5 mg/kg, iv; type: ADME, organism-based; details: in vivo
# [5] = target: T1, Leucine-rich repeat serine/threonine-protein kinase 2 (Homo sapiens, UniProt Q5S007); test: Inhibition of LRRK2 (unknown origin) phosphorylation by cell-based assay
# T1 sequence (Q5S007 whole entry): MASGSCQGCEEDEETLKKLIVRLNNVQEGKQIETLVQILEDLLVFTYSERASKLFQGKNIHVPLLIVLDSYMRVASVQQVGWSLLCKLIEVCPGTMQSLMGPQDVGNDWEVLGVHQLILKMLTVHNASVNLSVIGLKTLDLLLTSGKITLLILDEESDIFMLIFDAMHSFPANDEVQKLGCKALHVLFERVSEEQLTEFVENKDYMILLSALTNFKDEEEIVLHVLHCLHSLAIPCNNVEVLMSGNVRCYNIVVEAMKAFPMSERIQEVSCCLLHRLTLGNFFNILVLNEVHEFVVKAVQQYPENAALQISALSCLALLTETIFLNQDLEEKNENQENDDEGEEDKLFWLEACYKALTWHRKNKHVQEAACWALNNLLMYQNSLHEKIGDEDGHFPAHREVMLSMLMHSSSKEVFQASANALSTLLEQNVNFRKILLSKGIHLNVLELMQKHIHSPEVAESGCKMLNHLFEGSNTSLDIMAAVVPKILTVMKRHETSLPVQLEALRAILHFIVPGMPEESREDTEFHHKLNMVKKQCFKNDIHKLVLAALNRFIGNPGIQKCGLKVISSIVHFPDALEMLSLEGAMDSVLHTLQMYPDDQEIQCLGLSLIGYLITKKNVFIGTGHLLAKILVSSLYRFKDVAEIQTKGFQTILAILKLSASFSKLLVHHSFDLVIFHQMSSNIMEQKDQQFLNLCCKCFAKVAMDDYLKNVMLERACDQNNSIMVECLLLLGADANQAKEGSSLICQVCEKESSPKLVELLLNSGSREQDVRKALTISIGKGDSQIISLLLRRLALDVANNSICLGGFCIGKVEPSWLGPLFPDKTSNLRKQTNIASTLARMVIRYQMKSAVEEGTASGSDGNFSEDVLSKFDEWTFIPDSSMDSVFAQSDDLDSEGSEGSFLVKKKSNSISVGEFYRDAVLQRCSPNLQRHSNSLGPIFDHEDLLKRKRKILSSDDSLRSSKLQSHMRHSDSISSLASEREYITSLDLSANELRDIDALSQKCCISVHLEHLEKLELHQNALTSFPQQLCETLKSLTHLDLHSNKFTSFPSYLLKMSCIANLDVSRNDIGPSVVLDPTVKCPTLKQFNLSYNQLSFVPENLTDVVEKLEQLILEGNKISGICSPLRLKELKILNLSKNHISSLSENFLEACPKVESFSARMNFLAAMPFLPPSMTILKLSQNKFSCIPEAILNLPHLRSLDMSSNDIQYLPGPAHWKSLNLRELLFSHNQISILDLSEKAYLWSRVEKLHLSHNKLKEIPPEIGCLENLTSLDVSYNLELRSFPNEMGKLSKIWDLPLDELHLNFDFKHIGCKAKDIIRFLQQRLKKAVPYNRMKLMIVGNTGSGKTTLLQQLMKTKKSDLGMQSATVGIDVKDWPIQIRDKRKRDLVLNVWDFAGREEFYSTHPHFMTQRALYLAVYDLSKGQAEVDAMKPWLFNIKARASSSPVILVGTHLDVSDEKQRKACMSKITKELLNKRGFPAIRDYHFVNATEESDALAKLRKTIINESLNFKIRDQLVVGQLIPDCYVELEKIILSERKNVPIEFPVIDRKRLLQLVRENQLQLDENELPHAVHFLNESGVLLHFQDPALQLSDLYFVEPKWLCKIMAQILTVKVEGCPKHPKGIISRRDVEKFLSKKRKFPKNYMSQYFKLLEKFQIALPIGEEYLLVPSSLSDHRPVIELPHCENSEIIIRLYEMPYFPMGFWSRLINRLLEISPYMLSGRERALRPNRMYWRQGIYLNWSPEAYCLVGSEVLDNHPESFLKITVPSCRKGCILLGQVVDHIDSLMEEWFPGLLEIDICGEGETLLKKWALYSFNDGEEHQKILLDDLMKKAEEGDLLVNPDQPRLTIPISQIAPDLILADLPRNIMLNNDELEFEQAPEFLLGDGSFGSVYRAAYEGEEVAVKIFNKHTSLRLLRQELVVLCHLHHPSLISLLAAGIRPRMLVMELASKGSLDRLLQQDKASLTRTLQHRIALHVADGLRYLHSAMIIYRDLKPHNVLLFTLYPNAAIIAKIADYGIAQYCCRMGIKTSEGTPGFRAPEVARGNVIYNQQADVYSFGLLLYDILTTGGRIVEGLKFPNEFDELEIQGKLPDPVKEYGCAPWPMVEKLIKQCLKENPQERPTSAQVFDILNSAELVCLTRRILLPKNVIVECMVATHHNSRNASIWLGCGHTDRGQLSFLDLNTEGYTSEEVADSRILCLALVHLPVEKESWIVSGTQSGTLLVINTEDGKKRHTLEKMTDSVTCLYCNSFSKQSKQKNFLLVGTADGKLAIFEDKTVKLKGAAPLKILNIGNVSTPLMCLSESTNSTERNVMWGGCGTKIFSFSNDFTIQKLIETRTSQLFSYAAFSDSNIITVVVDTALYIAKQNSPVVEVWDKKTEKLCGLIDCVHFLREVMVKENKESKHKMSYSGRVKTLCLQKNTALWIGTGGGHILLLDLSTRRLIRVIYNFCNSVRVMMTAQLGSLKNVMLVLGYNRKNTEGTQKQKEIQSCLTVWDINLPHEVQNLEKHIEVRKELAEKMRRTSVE
# [6] = Ratio of unbound drug level in brain to plasma in Sprague-Dawley rat; type: ADME, organism-based
# [7] = target: T1, Leucine-rich repeat serine/threonine-protein kinase 2; test: Inhibition of LRRK2 (unknown origin)
# [8] = Clearance in human hepatocytes at 1 uM by LC-MS/MS analysis; type: ADME, cell-based, Hepatocyte
# [9] = Clearance in rat hepatocytes at 1 uM by LC-MS/MS analysis; type: ADME, cell-based, Hepatocyte
# [10] = Thermodynamic solubility of the crystalline form of compound at pH 7.4; type: physicochemical; details: read-out: Therm_solubility
# [11] = Volume of distribution in Sprague-Dawley rat at 0.5 mg/kg, iv; type: ADME, organism-based; parameters: dose 0.5 mg/kg, route intravenous; details: in vivo
# [12] = Half life in Sprague-Dawley rat at 0.5 mg/kg, iv; type: ADME, organism-based; parameters: dose 0.5 mg/kg, route intravenous; details: in vivo
# [13] = target: T2, BCRP (ABCG2) (Homo sapiens, UniProt Q9UNQ0); test: Activity at BCRP transporter (unknown origin) transfected in MDCK cells assessed as efflux ratio of permeability; type: ADME, cell-based
# T2 sequence (Q9UNQ0 whole entry): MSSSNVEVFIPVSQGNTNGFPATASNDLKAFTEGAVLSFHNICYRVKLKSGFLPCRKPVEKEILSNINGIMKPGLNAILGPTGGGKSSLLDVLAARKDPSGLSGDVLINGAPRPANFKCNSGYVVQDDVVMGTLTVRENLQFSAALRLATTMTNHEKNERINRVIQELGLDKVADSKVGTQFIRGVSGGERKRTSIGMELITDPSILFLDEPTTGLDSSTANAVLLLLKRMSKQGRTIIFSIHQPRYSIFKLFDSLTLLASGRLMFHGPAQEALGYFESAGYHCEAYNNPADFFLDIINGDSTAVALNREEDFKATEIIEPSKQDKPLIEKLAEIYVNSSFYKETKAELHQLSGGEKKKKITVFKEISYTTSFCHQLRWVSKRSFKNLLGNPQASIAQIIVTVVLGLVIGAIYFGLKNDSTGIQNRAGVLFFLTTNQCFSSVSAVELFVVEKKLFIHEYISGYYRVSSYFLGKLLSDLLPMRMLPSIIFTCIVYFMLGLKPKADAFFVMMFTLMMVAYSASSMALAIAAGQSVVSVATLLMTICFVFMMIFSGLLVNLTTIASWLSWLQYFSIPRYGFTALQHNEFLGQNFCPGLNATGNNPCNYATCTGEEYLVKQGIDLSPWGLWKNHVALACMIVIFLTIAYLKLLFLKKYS
# [14] = Reversible inhibition of CYP in human liver microsomes by mass spectrophotometric analysis; type: ADME
# [15] = target: T3, Cytochrome P450 1A2 (Homo sapiens, UniProt P05177); test: Time dependent inhibition of CYP1A2 in human liver microsomes using phenacetin as substrate by HPLC-MS analysis; type: ADME
# T3 sequence (P05177 whole entry): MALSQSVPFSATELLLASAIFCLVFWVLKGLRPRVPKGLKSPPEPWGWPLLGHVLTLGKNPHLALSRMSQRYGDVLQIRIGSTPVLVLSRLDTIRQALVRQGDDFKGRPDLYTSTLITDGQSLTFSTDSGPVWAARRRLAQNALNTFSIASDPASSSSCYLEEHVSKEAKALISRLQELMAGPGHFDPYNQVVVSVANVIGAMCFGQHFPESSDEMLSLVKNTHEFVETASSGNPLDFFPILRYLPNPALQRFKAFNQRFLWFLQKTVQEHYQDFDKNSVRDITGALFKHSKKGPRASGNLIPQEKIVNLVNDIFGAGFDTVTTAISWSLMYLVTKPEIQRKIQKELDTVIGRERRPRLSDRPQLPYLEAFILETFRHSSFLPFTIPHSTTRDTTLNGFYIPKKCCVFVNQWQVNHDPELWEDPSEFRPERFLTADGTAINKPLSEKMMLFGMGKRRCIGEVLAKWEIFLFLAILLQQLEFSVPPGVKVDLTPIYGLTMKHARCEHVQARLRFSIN
# Chain of MDR1 (P-gp, ABCB1) (P08183 whole entry): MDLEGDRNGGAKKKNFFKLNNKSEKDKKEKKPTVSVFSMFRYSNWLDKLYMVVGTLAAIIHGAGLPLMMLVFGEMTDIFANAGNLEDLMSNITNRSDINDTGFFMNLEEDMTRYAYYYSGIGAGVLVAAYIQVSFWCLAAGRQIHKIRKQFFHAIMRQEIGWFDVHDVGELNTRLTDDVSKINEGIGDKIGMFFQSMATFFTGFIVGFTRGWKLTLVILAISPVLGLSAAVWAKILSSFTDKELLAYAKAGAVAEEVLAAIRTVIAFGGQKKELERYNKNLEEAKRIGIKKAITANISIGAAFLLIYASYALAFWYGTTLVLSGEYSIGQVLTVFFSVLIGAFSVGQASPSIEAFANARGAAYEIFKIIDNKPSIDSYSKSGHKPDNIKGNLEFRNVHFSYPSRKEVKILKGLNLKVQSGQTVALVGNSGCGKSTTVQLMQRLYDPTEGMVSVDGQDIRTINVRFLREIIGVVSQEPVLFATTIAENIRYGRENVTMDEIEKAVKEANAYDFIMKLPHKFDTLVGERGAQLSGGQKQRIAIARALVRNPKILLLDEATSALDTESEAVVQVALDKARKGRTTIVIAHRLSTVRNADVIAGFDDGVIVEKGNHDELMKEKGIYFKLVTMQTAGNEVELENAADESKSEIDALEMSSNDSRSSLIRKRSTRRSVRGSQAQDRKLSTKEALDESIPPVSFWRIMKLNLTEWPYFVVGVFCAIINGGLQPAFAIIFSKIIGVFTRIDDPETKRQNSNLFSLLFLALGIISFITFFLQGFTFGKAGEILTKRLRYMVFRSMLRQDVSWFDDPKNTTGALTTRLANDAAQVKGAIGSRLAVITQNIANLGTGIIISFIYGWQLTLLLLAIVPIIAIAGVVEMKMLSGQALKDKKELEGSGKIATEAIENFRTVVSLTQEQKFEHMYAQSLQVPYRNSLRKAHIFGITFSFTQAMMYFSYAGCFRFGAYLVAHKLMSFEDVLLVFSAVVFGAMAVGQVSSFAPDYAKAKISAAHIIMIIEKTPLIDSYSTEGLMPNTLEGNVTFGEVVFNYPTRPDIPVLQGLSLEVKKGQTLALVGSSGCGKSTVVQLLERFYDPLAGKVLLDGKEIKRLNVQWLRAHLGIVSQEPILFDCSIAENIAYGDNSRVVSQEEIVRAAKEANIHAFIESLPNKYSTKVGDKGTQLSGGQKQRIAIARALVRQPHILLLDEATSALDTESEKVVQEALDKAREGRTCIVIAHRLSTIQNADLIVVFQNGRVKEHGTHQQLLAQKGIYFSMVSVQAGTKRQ
Compound,Ratio Ki [1],efflux ratio at 5 µM [2],CL free [3] [mL/min/kg],clearance [4] [mL/min/kg],IC50 [5] [nM],Kp uu [6],Ki [7] [nM],CLhep predicted at 1 µM [8] [mL/min/kg],CLhep predicted at 1 µM [9] [mL/min/kg],solubility thermodynamic [10] [µg/mL],Vd [11] [L/kg],half-life [12] [min],efflux ratio [13],inhibition (INH) [14],IC50 [15] [nM]
CNc1nc(Nc2cnn(C3(C#N)CC3)c2Cl)ncc1C(F)(F)F,> 150,1.3,431,22,22,0.6,2,9,30,–,–,–,–,–,–
CCNC(=O)C(C)(C)n1cc(Nc2ncc(C(F)(F)F)c(NC)n2)c(C)n1,> 150,4,–,–,99,–,–,–,–,–,–,–,–,–,–
CCNc1nc(Nc2cc(F)c(C(=O)N3CCOCC3)cc2OC)ncc1C(F)(F)F,> 150,–,–,–,–,–,–,–,–,< 2,–,–,–,–,–
CNc1nc(Nc2cn(C(C)(C)C(=O)NC(C)C)nc2C)ncc1C(F)(F)F,> 150,1.3,–,–,140,–,–,–,–,–,–,–,–,–,–
CNc1nc(Nc2cnn(C3CCOCC3)c2C)ncc1C(F)(F)F,> 150,2.3,232,74,11,0.3,2,5,35,–,1.1,10.2,–,–,–
CNc1nc(Nc2cnn3c2COC(C)(C)C3)ncc1C(F)(F)F,> 150,0.7,–,–,20,–,0.9,12,–,–,–,–,–,–,–
CNc1nc(Nc2cn([C@H]3CCN(C4COC4)C[C@H]3F)nc2C)ncc1C(F)(F)F (relative stereo),> 150,2.2,42,16,14,0.08,2,1,–,–,–,–,4.2,–,–
CNc1nc(Nc2cnn(C3COC3)c2C)ncc1C(F)(F)F,> 150,1.4,115,56,29,0.3,2,2,17,–,–,–,–,Not Active,2000
CNc1nc(Nc2cnn3c2C(C)O[C@@H](C)C3)ncc1C(F)(F)F (stereo partly drawn),> 150,1,–,–,49,–,6,8,–,–,–,–,–,–,–
